Reference: patent US11083725B2 (priority 2014, dated 2021)

Test system: NHBE cells
Assay: Biolog metabolic array: substrate use by NHBE cells with or without CA09 infection
Type: cell-based, human
Details: for Substrate use, 590 nm absorbance normalized to zero hour, 0 hr: Biolog PMM2, 0 hr; for Substrate use, 590 nm absorbance normalized to zero hour, 1 hr: Biolog PMM2, 1 hr; for Substrate use, 590 nm absorbance normalized to zero hour, 5 hr: Biolog PMM2, 5 hr; for Substrate use, 590 nm absorbance normalized to zero hour, 7 hr: Biolog PMM2, 7 hr
[1] = Control (uninfected) NHBE cells
[2] = Virus (CA09-infected NHBE cells, MOI 1)
[3] = Virus: CA09-infected NHBE cells, MOI 1, Biolog PMM2
[4] = Virus (CA09-infected, MOI 1) NHBE cells

| Structure (SMILES) | 590 nm absorbance normalized to zero hour (substrate use), 0 hr [1] | 590 nm absorbance normalized to zero hour (substrate use), 1 hr [1] | 590 nm absorbance normalized to zero hour (substrate use), 2 hr [1] | 590 nm absorbance normalized to zero hour (substrate use), 3 hr [1] | 590 nm absorbance normalized to zero hour (substrate use), 4 hr [1] | 590 nm absorbance normalized to zero hour (substrate use), 6 hr [1] | 590 nm absorbance normalized to zero hour (substrate use), 8 hr [1] | 590 nm absorbance normalized to zero hour (substrate use), 9 hr [1] | 590 nm absorbance normalized to zero hour (substrate use), 10 hr [1] | 590 nm absorbance normalized to zero hour (substrate use), 11 hr [1] | Substrate use, 590 nm absorbance normalized to zero hour, 0 hr [1] | Substrate use, 590 nm absorbance normalized to zero hour, 1 hr [1] | Substrate use, 590 nm absorbance normalized to zero hour, 5 hr [1] | Substrate use, 590 nm absorbance normalized to zero hour, 7 hr [1] | 590 nm absorbance normalized to zero hour (substrate use), 0 hr [3] | 590 nm absorbance normalized to zero hour (substrate use), 1 hr [3] | 590 nm absorbance normalized to zero hour (substrate use), 2 hr [3] | 590 nm absorbance normalized to zero hour (substrate use), 3 hr [3] | 590 nm absorbance normalized to zero hour (substrate use), 4 hr [3] | 590 nm absorbance normalized to zero hour (substrate use), 5 hr [3] | also measured |
| --- | --- | --- | --- | --- | --- | --- | --- | --- | --- | --- | --- | --- | --- | --- | --- | --- | --- | --- | --- | --- | --- |
| C[C@@H]1OC(O)[C@@H](O)[C@H](O)[C@@H]1O (stereo partly drawn) [L-Fucose] | 1.00 | 0.10 | 0.20 | 0.18 | 0.18 | 0.26 | 0.27 | 0.26 | 0.24 | 0.26 | 1.00 | 0.10 | 0.22 | 0.25 | 1.00 | 0.21 | 0.28 | 0.33 | 0.35 | 0.42 | 590 nm absorbance normalized to zero hour (substrate use), 0 hr [2]: 1.00; 590 nm absorbance normalized to zero hour (substrate use), 1 hr [2]: 0.21; 590 nm absorbance normalized to zero hour (substrate use), 2 hr [2]: 0.28; 590 nm absorbance normalized to zero hour (substrate use), 3 hr [2]: 0.33; 590 nm absorbance normalized to zero hour (substrate use), 4 hr [2]: 0.35; 590 nm absorbance normalized to zero hour (substrate use), 5 hr [2]: 0.42; 590 nm absorbance normalized to zero hour (substrate use), 6 hr [2]: 0.45; 590 nm absorbance normalized to zero hour (substrate use), 7 hr [2]: 0.47; 590 nm absorbance normalized to zero hour (substrate use), 8 hr [2]: 0.50; 590 nm absorbance normalized to zero hour (substrate use), 9 hr [2]: 0.54; 590 nm absorbance normalized to zero hour (substrate use), 10 hr [2]: 0.57; 590 nm absorbance normalized to zero hour (substrate use), 11 hr [2]: 0.61; 590 nm absorbance normalized to zero hour (substrate use), 6 hr [3]: 0.45; 590 nm absorbance normalized to zero hour (substrate use), 7 hr [3]: 0.47; 590 nm absorbance normalized to zero hour (substrate use), 8 hr [3]: 0.50; 590 nm absorbance normalized to zero hour (substrate use), 9 hr [3]: 0.54; 590 nm absorbance normalized to zero hour (substrate use), 10 hr [3]: 0.57; 590 nm absorbance normalized to zero hour (substrate use), 11 hr [3]: 0.61 |
| OC[C@@H]1OC(O)[C@@H](O)[C@H](O)[C@H]1O (stereo partly drawn) [L-Glucose] | 1.00 | 1.65 | 2.20 | 2.64 | 2.83 | 3.82 | 3.55 | 3.76 | 3.89 | 4.25 | 1.00 | 1.65 | 3.52 | 3.51 | 1.00 | 0.29 | 0.39 | 0.45 | 0.49 | 0.57 | 590 nm absorbance normalized to zero hour (substrate use), 0 hr [2]: 1.00; 590 nm absorbance normalized to zero hour (substrate use), 1 hr [2]: 0.29; 590 nm absorbance normalized to zero hour (substrate use), 2 hr [2]: 0.39; 590 nm absorbance normalized to zero hour (substrate use), 3 hr [2]: 0.45; 590 nm absorbance normalized to zero hour (substrate use), 4 hr [2]: 0.49; 590 nm absorbance normalized to zero hour (substrate use), 5 hr [2]: 0.57; 590 nm absorbance normalized to zero hour (substrate use), 6 hr [2]: 0.61; 590 nm absorbance normalized to zero hour (substrate use), 7 hr [2]: 0.64; 590 nm absorbance normalized to zero hour (substrate use), 8 hr [2]: 0.68; 590 nm absorbance normalized to zero hour (substrate use), 9 hr [2]: 0.76; 590 nm absorbance normalized to zero hour (substrate use), 10 hr [2]: 0.76; 590 nm absorbance normalized to zero hour (substrate use), 11 hr [2]: 0.86; 590 nm absorbance normalized to zero hour (substrate use), 6 hr [3]: 0.61; 590 nm absorbance normalized to zero hour (substrate use), 7 hr [3]: 0.64; 590 nm absorbance normalized to zero hour (substrate use), 8 hr [3]: 0.68; 590 nm absorbance normalized to zero hour (substrate use), 9 hr [3]: 0.76; 590 nm absorbance normalized to zero hour (substrate use), 10 hr [3]: 0.76; 590 nm absorbance normalized to zero hour (substrate use), 11 hr [3]: 0.86 |
| CC(O)C(=O)O [L-Lactic Acid (DL)] | 1.00 | 1.56 | 2.01 | 2.57 | 2.66 | 1.75 | 3.21 | 3.56 | 3.63 | 4.70 | 1.00 | 1.56 | 3.09 | 2.97 | 1.00 | 1.33 | 1.66 | 2.04 | 2.11 | 2.48 | 590 nm absorbance normalized to zero hour (substrate use), 0 hr [4]: 1.00; 590 nm absorbance normalized to zero hour (substrate use), 1 hr [4]: 1.33; 590 nm absorbance normalized to zero hour (substrate use), 2 hr [4]: 1.66; 590 nm absorbance normalized to zero hour (substrate use), 3 hr [4]: 2.04; 590 nm absorbance normalized to zero hour (substrate use), 4 hr [4]: 2.11; 590 nm absorbance normalized to zero hour (substrate use), 5 hr [4]: 2.48; 590 nm absorbance normalized to zero hour (substrate use), 6 hr [4]: 2.68; 590 nm absorbance normalized to zero hour (substrate use), 7 hr [4]: 2.86; 590 nm absorbance normalized to zero hour (substrate use), 8 hr [4]: 3.04; 590 nm absorbance normalized to zero hour (substrate use), 9 hr [4]: 3.36; 590 nm absorbance normalized to zero hour (substrate use), 10 hr [4]: 3.49; 590 nm absorbance normalized to zero hour (substrate use), 11 hr [4]: 3.91; 590 nm absorbance normalized to zero hour (substrate use), 6 hr [3]: 2.68; 590 nm absorbance normalized to zero hour (substrate use), 7 hr [3]: 2.86; 590 nm absorbance normalized to zero hour (substrate use), 8 hr [3]: 3.04; 590 nm absorbance normalized to zero hour (substrate use), 9 hr [3]: 3.36; 590 nm absorbance normalized to zero hour (substrate use), 10 hr [3]: 3.49; 590 nm absorbance normalized to zero hour (substrate use), 11 hr [3]: 3.91 |
